Results from ChEMBL document CHEMBL5726126, “2-pyridylamino-4-nitrile-piperidinyl orexin receptor antagonists” (2017).

Target: T1, Orexin receptor type 2 (Homo sapiens, UniProt O43614)
T1 sequence (O43614 whole entry): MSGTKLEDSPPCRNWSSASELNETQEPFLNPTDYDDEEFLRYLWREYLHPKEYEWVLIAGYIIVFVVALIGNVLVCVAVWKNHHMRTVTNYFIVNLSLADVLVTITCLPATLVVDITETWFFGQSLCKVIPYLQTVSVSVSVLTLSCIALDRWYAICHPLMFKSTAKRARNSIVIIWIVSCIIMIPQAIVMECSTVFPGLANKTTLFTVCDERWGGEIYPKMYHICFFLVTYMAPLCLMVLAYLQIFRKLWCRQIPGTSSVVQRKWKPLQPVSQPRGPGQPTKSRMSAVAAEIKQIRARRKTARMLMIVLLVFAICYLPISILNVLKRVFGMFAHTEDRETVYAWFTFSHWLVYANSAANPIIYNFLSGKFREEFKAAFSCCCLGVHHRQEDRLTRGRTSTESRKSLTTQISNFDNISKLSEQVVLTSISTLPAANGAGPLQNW
Test: FLIPR Ca2+ Flux Assay: FLIPR Ca2+ Flux Assay- (Okumura et al., Biochem. Biophys. Res. Comm. 280:976-981, 2001). In a typical experiment the OX1 and OX2 receptor antagonistic activity of the compounds of the present invention was determined in accordance with the following experimental method. For intracellular calcium measurements, Chinese hamster ovary (CHO) cells expressing the rat orexin-1 receptor or the human orexin-2 receptor, are grown in Iscove's modified DMEM containing 2 mM L-glutamine, […], 1% hypoxanthine-thymidine supplement, 100 U/ml penicillin, 100 μg/ml streptomycin and 10% heat-inactivated fetal calf serum (FCS). The cells are seeded at 20,000 cells/well into Becton-Dickinson black 384-well clear bottom sterile plates coated with poly-D-lysine. All reagents were from GIBCO-Invitrogen Corp. The seeded plates are incubated overnight at […]. and 5% CO2. Ala-6,12 human orexin-A as the agonist is prepared as a 1 mM stock solution in 1% bovine serum albumin (BSA) and diluted in assay buffer (HBSS containing 20 mM HEPES, 0.1% BSA and 2.5 mM probenecid, pH7.4) for use in the assay at a final concentration of 70 pM. Test compounds are prepared as 10 mM stock solution in DMSO, then diluted in 384-well plates, first in DMSO, then assay buffer. […]
Type: cell-based

CC(=O)N(c1cc(C#N)ccn1)[C@@H]1CC[C@@H](C)N(C(=O)c2ccccc2-n2nccn2)C1
IC50: 1.78 µM
